# Measured values published in PubChem BioAssay (NCI).
#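 Cells were grown in 96-well plates and exposed to each compound for 48 hours at five concentrations; endpoints were interpolated linearly between bracketing concentrations, or set to the highest concentration if not reached. TGI: total growth inhibition.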
# What was measured:
# Assay in all cases: growth of human tumour cells (NCI), 48 h
# [1] = system: PC-3 prostate
# [2] = system: MDA-MB-231 breast
# [3] = system: HS 578T breast
# [4] = system: U251 CNS
# [5] = system: SNB-19 CNS
# [6] = system: HOP-62 NSCLC
# [7] = system: NCI-H460 lung
# [8] = system: OVCAR-3 ovarian
# [9] = system: NCI/ADR-RES ovarian
# [10] = system: SN12C renal
# [11] = system: OVCAR-5 ovarian
# [12] = system: IGROV1 ovarian
# [13] = system: 786-0 renal
# [14] = system: CAKI-1 renal
# [15] = system: MALME-3M melanoma
# [16] = system: OVCAR-4 ovarian
# [17] = system: SK-OV-3 ovarian
# [18] = system: HCT-15 colon
# [19] = system: MCF7 breast
# [20] = system: OVCAR-8 ovarian
# [21] = system: SF-539 CNS
# [22] = system: M14 melanoma
# [23] = system: UACC-257 melanoma
# [24] = system: EKVX NSCLC
# [25] = system: MDA-N
# [26] = system: NCI-H23 lung
# [27] = system: SW-620 colon
# [28] = system: UACC-62 melanoma
# [29] = system: SNB-75 CNS
# [30] = system: HT29 colon
# [31] = system: SF-295 CNS
# [32] = system: HCT-116 colon
# [33] = system: HCC-2998 colon
# [34] = system: T-47D breast
# [35] = system: TK-10 renal
# [36] = system: SF-268 CNS
# [37] = system: DU-145 prostate
# [38] = system: COLO 205 colon
# [39] = system: SK-MEL-5 melanoma
# [40] = system: RPMI-8226 leukemia
# [41] = system: MOLT-4 leukemia
# [42] = system: NCI-H226 lung
# [43] = system: RXF 393 renal
# [44] = system: LOX IMVI melanoma
# [45] = system: CCRF-CEM leukemia
# [46] = system: A498 renal
# [47] = system: KM12 colon
# [48] = system: SK-MEL-28 melanoma
# [49] = system: A549 NSCLC
# [50] = system: HOP-92 NSCLC
# [51] = system: K-562 leukemia
# [52] = system: ACHN renal
# [53] = system: HL-60(TB) leukemia
# [54] = system: MDA-MB-435
# [55] = system: UO-31 renal
# [56] = system: SR leukemia
# [57] = system: NCI-H522 lung
structure (smiles),measurement,setting,value
CCCCCCCCCCCCCCCCCC(=O)OCC(COC1OC(COP(=O)(O)O)C(O)C(O)C1O)OC(=O)CCCCCCCCCCCCCCCCC (centres undefined),TGI,[1],14.3 µM
same,TGI,[2],9.24 µM
same,TGI,[3],17.4 µM
same,TGI,[4],14.7 µM
same,TGI,[5],14.8 µM
same,TGI,[6],15.1 µM
same,TGI,[7],23.4 µM
same,TGI,[8],16 µM
same,TGI,[9],18.2 µM
same,TGI,[10],14.1 µM
same,TGI,[11],11.4 µM
same,TGI,[12],10.5 µM
same,TGI,[13],14.9 µM
same,TGI,[14],16.9 µM
same,TGI,[15],14.2 µM
same,TGI,[16],14.5 µM
same,TGI,[17],15.4 µM
same,TGI,[18],14.4 µM
same,TGI,[19],17.1 µM
same,TGI,[20],17.8 µM
same,TGI,[21],18.1 µM
same,TGI,[22],17.3 µM
same,TGI,[23],16.6 µM
same,TGI,[24],16.4 µM
same,TGI,[25],20.1 µM
same,TGI,[26],15 µM
same,TGI,[27],17.9 µM
same,TGI,[28],16.3 µM
same,TGI,[29],11.5 µM
same,TGI,[30],11.7 µM
same,TGI,[31],10.6 µM
same,TGI,[32],16.2 µM
same,TGI,[33],15.7 µM
same,TGI,[34],28.9 µM
same,TGI,[35],17.6 µM
same,TGI,[36],17 µM
same,TGI,[37],16.8 µM
same,TGI,[38],18.5 µM
same,TGI,[39],16.6 µM
same,TGI,[40],23.1 µM
same,TGI,[41],17.3 µM
same,TGI,[42],13.3 µM
same,TGI,[43],16.8 µM
same,TGI,[44],17.2 µM
same,TGI,[45],14.4 µM
same,TGI,[46],12.5 µM
same,TGI,[47],13 µM
same,TGI,[48],18 µM
same,TGI,[49],16 µM
same,TGI,[50],10.5 µM
same,TGI,[51],18.7 µM
same,TGI,[52],12.7 µM
same,TGI,[53],21.1 µM
same,TGI,[54],17.1 µM
COc1ccc2[nH]c3c(c2c1)CCn1c-3nc2ccccc2c1=O,TGI,[1],> 25 µM
same,TGI,[2],> 25 µM
same,TGI,[3],> 25 µM
same,TGI,[4],> 25 µM
same,TGI,[5],> 25 µM
same,TGI,[6],> 25 µM
same,TGI,[7],> 25 µM
same,TGI,[9],> 25 µM
same,TGI,[10],> 25 µM
same,TGI,[11],> 25 µM
same,TGI,[12],> 25 µM
same,TGI,[13],> 25 µM
same,TGI,[16],> 25 µM
same,TGI,[55],> 25 µM
same,TGI,[17],> 25 µM
same,TGI,[18],> 25 µM
same,TGI,[19],> 25 µM
same,TGI,[20],> 25 µM
same,TGI,[21],> 25 µM
same,TGI,[22],> 25 µM
same,TGI,[23],> 25 µM
same,TGI,[24],> 25 µM
same,TGI,[25],> 25 µM
same,TGI,[27],> 25 µM
same,TGI,[29],> 25 µM
same,TGI,[31],> 25 µM
same,TGI,[32],> 25 µM
same,TGI,[33],> 25 µM
same,TGI,[34],> 25 µM
same,TGI,[56],> 25 µM
same,TGI,[35],> 25 µM
same,TGI,[36],> 25 µM
same,TGI,[38],> 25 µM
same,TGI,[39],> 25 µM
same,TGI,[40],> 25 µM
same,TGI,[41],> 25 µM
same,TGI,[45],> 25 µM
same,TGI,[57],> 25 µM
same,TGI,[47],> 25 µM
same,TGI,[48],> 25 µM
same,TGI,[49],> 25 µM
same,TGI,[51],> 25 µM
same,TGI,[52],> 25 µM
same,TGI,[53],> 25 µM
same,TGI,[54],> 25 µM
